From patent US20260297095A1, “NOVEL PYRROLOTRIAZINE DERIVATIVE AND USE THEREOF” (Pelemed Co., Ltd., priority 2024, published 2026)

How the values were obtained:
[1] = target: YES1 kinase (Homo sapiens, UniProt P07947); assay: YES1 kinase inhibition, ADP Glo assay (Promega); assay type: biochemical; conditions: for inhibition at 0.01 µM: compound 10 nM, read-out: YES1 enzyme, % inhibition, 10 nM; for inhibition at 0.1 µM: compound 100 nM, read-out: YES1 enzyme, % inhibition, 100 nM
Experimental: To evaluate the inhibitory activity against YES1 kinase of the compound according to the present invention, ADP Glo assay (Promega) was used, and the following method was performed with reference to the Promega kinase enzyme system protocol. To proceed with the experiment, buffers A-F and compound dilution plates were required.
To prepare A.4X reaction buffer, 800 μl of 5X reaction buffer and 200 μl of distilled water were used. To prepare B.4X kinase buffer, 996.6 μl of A.4X reaction buffer, 2 μl of 0.1M DTT, and 3.2 μl of 2.5M MnCl2 were added and mixed. To prepare C.1X kinase buffer (containing 5% DMSO) used for compound dilution, 250 μl of B.4X kinase buffer, 700 μl of distilled water, and 50 μl of DMSO were added, so that the final DMSO concentration became 5%. Then, 10 mM compounds were diluted 100-fold to prepare 100 μM solutions, and then D.5X inhibitor solution was prepared so that the compound concentration became 5 uM. Using a 96-well plate, 5 μM compounds were 3-fold diluted using C.1X kinase buffer (containing 5% DMSO) to prepare compound plates with concentrations ranging from 0.25 μM to 5 μM. The resulting plates were stored at room temperature. To prepare E. 2.5X ATP/substrate mixture, 50 μl of B.4X kinase buffer, 50 μl of […], and 100 μl of substrate were mixed. To prepare F YES1 kinase enzyme solution, 35 μl of B.4X kinase buffer, 0.4 μl of YES1 enzyme, and 104.6 μl of distilled water were used. Once the diluted compound plates, ATP/substrate mixture, and YES1 kinase solution were all prepared, 3 μL each was transferred from the diluted compound plate to a luciferase 96-well white plate (Since the total volume of the ATP/substrate and YES1 kinase solution that reacts with the compound is 15 μL, the compounds were diluted 5-fold, making the final compound concentration 0.05 μM-1 μM). Then, 6 μL of F. YES1 Kinase Enzyme Solution was transferred to each well, pipetted 10 times to mix, and incubated at room temperature in a shaker for 10 minutes. Next, 6 μL of E. 2.5X ATP/Substrate Mixture was transferred to each well, pipetted 10 times to mix, and centrifuged at 12,000 rpm for 5 minutes. The plate was then incubated in a shaker at room temperature for 40 minutes. After that, 15 μL of ADP-Glo Reagent, dissolved at room temperature, was added to each well, pipetted 10 times, and incubated in a shaker at room temperature for 40 minutes. Finally, 30 μL of Kinase Detection Reagent, dissolved at room temperature, was added, pipetted 10 times, incubated in a shaker at room temperature for 30 minutes. Luminescence was measured using a luminescence plate reader. Then, the background value was subtracted from all measured values, and the YES1 kinase activity at compound concentrations of 1 nM, 10 nM, and 100 nM was calculated. The measured values were calculated as percentages using the average value of the negative control. Graphs were drawn using GraphPad Prism, and the enzyme activity was calculated as a percentage of YES1 kinase inhibition at compound concentrations of 1 nM, 10 nM, and 100 nM. IC50 values were obtained using Microsoft Excel.

[2] = tested on: KYSE-70 esophageal cancer cell line; assay: Cell growth inhibition of KYSE-70 (Sulforhodamine B); assay type: cell-based; conditions: Homo sapiens; KYSE-70, 72 hours; read-out: KYSE70 GI50
Experimental: The cell line according to the present invention was selected as KYSE-70, an esophageal cancer cell line in which YES1 is amplified. The evaluation of cell growth inhibition was performed as follows.
KYSE-70 was cultured in RPMI-1640 (Capricorn) supplemented with 10% FBS (Cellgro). The cells were seeded 24 hours prior to compound treatment, into three 96-well F-bottom clear plates (Greiner), with 7,500 cells per well in 180 μL of medium. The 10 mM compound was diluted 100-fold in medium to prepare a 100 μM compound, which was then placed into a 96-well plate and further 3-fold diluted in medium to prepare a compound plate with concentrations ranging from 0.046 μM to 100 μM. 20 μL of each compound from the drug plate was added to the cell-seeded plates to achieve final concentrations of 0.0046 μM to 10 μM. At the same time, 50 μL of 33% trichloroacetic acid was injected into one plate and the plate was fixed by incubating at 4° C. This was referred to as the Do plate. Viable cells were measured 72 hours after compound treatment by injecting 50 μL of 33% trichloroacetic acid and incubating at 4° C. for more than 1 hour to fix the cells. This was referred to as the D3 plate. After the Do plate and D3 plates were washed 5 times with sterile water, 100 μL of 0.04% Sulforhodamine B solution in 1% acetic acid was added and reacted for 1 hour to stain the cells. After staining, the plates were washed 4 times with 1% acetic acid solution and completely dried. Then, the Sulforhodamine B bound to cellular proteins was completely dissolved with 10 mM Tris base solution (pH 10.5). The absorbance was measured at a wavelength of 510 nm using a microplate reader (TECAN, sunrise microplate reader). The analysis was performed using GraphPad Prism. The average absorbance of the Do plate was set to 0%, and the average absorbance of the negative control of the D3 plate was set to 100%, from which a graph was drawn and the GI50 values were calculated. Each test was performed twice.

YES1 kinase, sequence (P07947 whole entry): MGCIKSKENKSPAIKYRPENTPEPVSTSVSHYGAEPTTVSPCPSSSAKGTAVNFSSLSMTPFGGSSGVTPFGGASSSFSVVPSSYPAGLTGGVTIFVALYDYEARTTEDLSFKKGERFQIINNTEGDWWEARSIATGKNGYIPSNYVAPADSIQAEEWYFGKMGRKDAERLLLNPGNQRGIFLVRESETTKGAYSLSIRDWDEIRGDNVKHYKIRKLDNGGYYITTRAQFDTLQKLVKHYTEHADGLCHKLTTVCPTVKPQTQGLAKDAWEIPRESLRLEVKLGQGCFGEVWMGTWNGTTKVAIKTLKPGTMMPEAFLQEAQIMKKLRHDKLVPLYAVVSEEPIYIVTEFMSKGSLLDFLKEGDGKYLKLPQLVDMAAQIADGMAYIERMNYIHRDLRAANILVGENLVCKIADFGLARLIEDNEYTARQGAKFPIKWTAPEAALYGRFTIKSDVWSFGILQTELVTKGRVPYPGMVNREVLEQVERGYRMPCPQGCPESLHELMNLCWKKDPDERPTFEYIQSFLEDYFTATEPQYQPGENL

COc1cc(-c2cc(-c3ccc4c(c3)OCCN4C)n3ncnc(N)c23)ccc1NC(=O)OC(C)(C)C [Example 7, tert-butyl (4-(4-amino-7-(4-methyl-3,4-dihydro-2H-benzo[b][1,4]oxazin-7-yl)pyrrolo[2,1-f][1,2,4]triazin-5-yl)-2-methoxyphenyl)carbamate] was tested. Which inhibition at 0.01 µM [1] did it give?
Its inhibition at 0.01 µM is 28%.

What about the inhibition at 0.1 µM [1] of the same molecule?
The inhibition at 0.1 µM was 49%.

And the GI50 [2]?
The GI50 was 1 to 10 µM.

How did the inhibition at 0.01 µM [1] turn out when COc1cc(-c2cc(-c3ccc4c(c3)OCC(=O)N4C)n3ncnc(N)c23)ccc1NC(=O)OC(C)(C)C [Example 8, tert-butyl (4-(4-amino-7-(4-methyl-3-oxo-3,4-dihydro-2H-benzo[b][1,4]oxazin-7-yl)pyrrolo[2,1-f][1,2,4]triazin-5-yl)-2-methoxyphenyl)carbamate] was run?
Its inhibition at 0.01 µM is 33%.

And the inhibition at 0.1 µM [1]?
The inhibition at 0.1 µM was 64%.

And the GI50 [2]?
The GI50 was > 10 µM.

How did the inhibition at 0.01 µM [1] turn out when COc1cc(-c2cc(-c3ccc4c(c3)oc(=O)n4C)n3ncnc(N)c23)ccc1NC(=O)OC(C)(C)C [Example 9, tert-butyl (4-(4-amino-7-(3-methyl-2-oxo-2,3-dihydrobenzo[d]oxazol-6-yl)pyrrolo[2,1-f][1,2,4]triazin-5-yl)-2-methoxyphenyl)carbamate] was run?
Its inhibition at 0.01 µM is 39%.

What about the inhibition at 0.1 µM [1] of the same molecule?
Its inhibition at 0.1 µM is 57%.

And the GI50 [2]?
Its GI50 is 1 to 10 µM.

COc1cc(-c2cc(N3CC[C@@H](N(C)C)C3)n3ncnc(N)c23)ccc1NC(=O)OC(C)(C)C [Example 10, tert-butyl (R)-(4-(4-amino-7-(3-(dimethylamino)pyrrolidin-1-yl)pyrrolo[2,1-f][1,2,4]triazin-5-yl)-2-methoxyphenyl)carbamate] was tested. Which inhibition at 0.01 µM [1] did it give?
The inhibition at 0.01 µM was 8%.

What about the inhibition at 0.1 µM [1] of the same molecule?
The inhibition at 0.1 µM was 38%.

What about the GI50 [2] of the same molecule?
Its GI50 is 1 to 10 µM.

Which results are given for COc1cc(-c2cc(N3CC[C@H](N(C)C)C3)n3ncnc(N)c23)ccc1NC(=O)OC(C)(C)C [Example 11, tert-butyl (S)-(4-(4-amino-7-(3-(dimethylamino)pyrrolidin-1-yl)pyrrolo[2,1-f][1,2,4]triazin-5-yl)-2-methoxyphenyl)carbamate]?
inhibition at 0.01 µM [1]: 21%; inhibition at 0.1 µM [1]: 44%; GI50 [2]: 0.1 to 1 µM

COc1cc(-c2cc(N3CCC(N)CC3)n3ncnc(N)c23)ccc1NC(=O)OC(C)(C)C [Example 12, tert-butyl (4-(4-amino-7-(4-aminopiperidin-1-yl)pyrrolo[2,1-f][1,2,4]triazin-5-yl)-2-methoxyphenyl)carbamate] was tested. Which inhibition at 0.01 µM [1] did it give?
The inhibition at 0.01 µM was 65%.

What about the inhibition at 0.1 µM [1] of the same molecule?
The inhibition at 0.1 µM was 86%.

What about the GI50 [2] of the same molecule?
The GI50 was 0.1 to 1 µM.

Which inhibition at 0.01 µM [1] does the source give for CCN(CC)C1CCN(c2cc(-c3ccc(NC(=O)OC(C)(C)C)c(OC)c3)c3c(N)ncnn23)CC1 [Example 14, tert-butyl (4-(4-amino-7-(4-(diethylamino)piperidin-1-yl)pyrrolo[2,1-f][1,2,4]triazin-5-yl)-2-methoxyphenyl)carbamate] here?
Its inhibition at 0.01 µM is 19%.

And the inhibition at 0.1 µM [1]?
Its inhibition at 0.1 µM is 77%.

And the GI50 [2]?
The GI50 was 0.1 to 1 µM.

COc1cc(-c2cc(N3CCC(N(C)C)CC3)n3ncnc(N)c23)ccc1NC(=O)OC(C)(C)C [Example 15, tert-butyl (4-(4-amino-7-(4-(dimethylamino)piperidin-1-yl)pyrrolo[2,1-f][1,2,4]triazin-5-yl)-2-methoxyphenyl)carbamate] was tested. Which inhibition at 0.01 µM [1] did it give?
The inhibition at 0.01 µM was 67%.

And the inhibition at 0.1 µM [1]?
The inhibition at 0.1 µM was 88%.

And the GI50 [2]?
The GI50 was ≤ 0.1 µM.

How did the inhibition at 0.01 µM [1] turn out when COc1cc(-c2cc(N3CCN(C4CC4)CC3)n3ncnc(N)c23)ccc1NC(=O)OC(C)(C)C [Example 17, tert-butyl (4-(4-amino-7-(4-cyclopropylpiperazin-1-yl)pyrrolo[2,1-f][1,2,4]triazin-5-yl)-2-methoxyphenyl)carbamate] was run?
The inhibition at 0.01 µM was 53%.

And the inhibition at 0.1 µM [1]?
The inhibition at 0.1 µM was 59%.

What about the GI50 [2] of the same molecule?
Its GI50 is 1 to 10 µM.

With COc1cc(-c2cc(N3CC4(CC(N(C)C)C4)C3)n3ncnc(N)c23)ccc1NC(=O)OC(C)(C)C [Example 18, tert-butyl (4-(4-amino-7-(6-(dimethylamino)-2-azaspiro[3.3]heptan-2-yl)pyrrolo[2,1-f][1,2,4]triazin-5-yl)-2-methoxyphenyl)carbamate] as the molecule, how does the inhibition at 0.01 µM [1] read?
The inhibition at 0.01 µM was 39%.

What about the inhibition at 0.1 µM [1] of the same molecule?
Its inhibition at 0.1 µM is 81%.

What about the GI50 [2] of the same molecule?
The GI50 was 0.1 to 1 µM.

With COc1cc(-c2cc(N3CCC(CN(C)C)CC3)n3ncnc(N)c23)ccc1NC(=O)OC(C)(C)C [Example 19, tert-butyl (4-(4-amino-7-(4-((dimethylamino)methyl)piperidin-1-yl)pyrrolo[2,1-f][1,2,4]triazin-5-yl)-2-methoxyphenyl)carbamate] as the molecule, how does the inhibition at 0.01 µM [1] read?
Its inhibition at 0.01 µM is 69%.

And the inhibition at 0.1 µM [1]?
The inhibition at 0.1 µM was 86%.

And the GI50 [2]?
Its GI50 is ≤ 0.1 µM.

With COc1cc(-c2cc(N3CCC(CN(C)C)C3)n3ncnc(N)c23)ccc1NC(=O)OC(C)(C)C (stereo not drawn) [Example 20, tert-butyl (4-(4-amino-7-(3-((dimethylamino)methyl)pyrrolidin-1-yl)pyrrolo[2,1-f][1,2,4]triazin-5-yl)-2-methoxyphenyl)carbamate] as the molecule, how does the inhibition at 0.01 µM [1] read?
The inhibition at 0.01 µM was 36%.

And the inhibition at 0.1 µM [1]?
The inhibition at 0.1 µM was 70%.

What about the GI50 [2] of the same molecule?
Its GI50 is 0.1 to 1 µM.

Which inhibition at 0.01 µM [1] does the source give for COc1cc(-c2cc(N3CCC4(CC3)CN(C)C4)n3ncnc(N)c23)ccc1NC(=O)OC(C)(C)C [Example 21, tert-butyl (4-(4-amino-7-(2-methyl-2,7-diazaspiro[3.5]nonan-7-yl)pyrrolo[2,1-f][1,2,4]triazin-5-yl)-2-methoxyphenyl)carbamate] here?
The inhibition at 0.01 µM was 67%.

And the inhibition at 0.1 µM [1]?
The inhibition at 0.1 µM was 92%.

And the GI50 [2]?
Its GI50 is 0.1 to 1 µM.

Which results are given for COc1cc(-c2cc(N3CCC4(CCN(C)C4)CC3)n3ncnc(N)c23)ccc1NC(=O)OC(C)(C)C [Example 22, tert-butyl (4-(4-amino-7-(2-methyl-2,8-diazaspiro[4.5]decan-8-yl)pyrrolo[2,1-f][1,2,4]triazin-5-yl)-2-methoxyphenyl)carbamate]?
inhibition at 0.01 µM [1]: 60%; inhibition at 0.1 µM [1]: 87%; GI50 [2]: 0.1 to 1 µM

With COc1cc(-c2cc(N3CCC4(CCCN4)CC3)n3ncnc(N)c23)ccc1NC(=O)OC(C)(C)C [Example 23, tert-butyl (4-(4-amino-7-(1,8-diazaspiro[4.5]decan-8-yl)pyrrolo[2,1-f][1,2,4]triazin-5-yl)-2-methoxyphenyl)carbamate] as the molecule, how does the inhibition at 0.01 µM [1] read?
The inhibition at 0.01 µM was 58%.

What about the inhibition at 0.1 µM [1] of the same molecule?
Its inhibition at 0.1 µM is 87%.

And the GI50 [2]?
The GI50 was ≤ 0.1 µM.

How did the inhibition at 0.01 µM [1] turn out when COc1cc(-c2cc(N3CCC4(CCCN4C)CC3)n3ncnc(N)c23)ccc1NC(=O)OC(C)(C)C [Example 24, tert-butyl (4-(4-amino-7-(1-methyl-1,8-diazaspiro[4.5]decan-8-yl)pyrrolo[2,1-f][1,2,4]triazin-5-yl)-2-methoxyphenyl)carbamate] was run?
Its inhibition at 0.01 µM is 50%.

And the inhibition at 0.1 µM [1]?
Its inhibition at 0.1 µM is 82%.

What about the GI50 [2] of the same molecule?
The GI50 was 0.1 to 1 µM.

Which results are given for COc1cc(-c2cc(N3CCC4NCCC4C3)n3ncnc(N)c23)ccc1NC(=O)OC(C)(C)C (stereo not drawn) [Example 25, tert-butyl (4-(4-amino-7-(octahydro-5H-pyrrolo[3,2-c]pyridin-5-yl)pyrrolo[2,1-f][1,2,4]triazin-5-yl)-2-methoxyphenyl)carbamate]?
inhibition at 0.01 µM [1]: 28%; inhibition at 0.1 µM [1]: 76%; GI50 [2]: 0.1 to 1 µM
